#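 Step 1: Grow cells in 96-well plates. Step 2: Expose to compound for 48 hours at 5 concentrations. Step 3: Interpolate endpoints linearly; if unreached, use highest concentration. Abbreviation: GI50, concentration required for 50% inhibition of growth. TGI denotes the concentration required for complete inhibition of growth.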
# Tests used:
# Assay in all cases: growth of human tumour cells (NCI), 48 h
# 786-0 renal = system: 786-0 renal
# A498 renal = system: A498 renal
# A549 NSCLC = system: A549 NSCLC
# BT-549 breast = system: BT-549 breast
# CAKI-1 renal = system: CAKI-1 renal
# CCRF-CEM leukemia = system: CCRF-CEM leukemia
# COLO 205 colon = system: COLO 205 colon
# DU-145 prostate = system: DU-145 prostate
# HCC-2998 colon = system: HCC-2998 colon
# HCT-116 colon = system: HCT-116 colon
# HCT-15 colon = system: HCT-15 colon
# HL-60(TB) leukemia = system: HL-60(TB) leukemia
# HOP-62 NSCLC = system: HOP-62 NSCLC
# HOP-92 NSCLC = system: HOP-92 NSCLC
# HS 578T breast = system: HS 578T breast
# HT29 colon = system: HT29 colon
# IGROV1 ovarian = system: IGROV1 ovarian
# K-562 leukemia = system: K-562 leukemia
# KM12 colon = system: KM12 colon
# LOX IMVI melanoma = system: LOX IMVI melanoma
# M14 melanoma = system: M14 melanoma
# MALME-3M melanoma = system: MALME-3M melanoma
# MCF7 breast = system: MCF7 breast
# MDA-MB-231 breast = system: MDA-MB-231 breast
# MDA-MB-435 = system: MDA-MB-435
# MDA-MB-468 breast = system: MDA-MB-468 breast
# MOLT-4 leukemia = system: MOLT-4 leukemia
# NCI-H226 lung = system: NCI-H226 lung
# NCI-H23 lung = system: NCI-H23 lung
# NCI-H460 lung = system: NCI-H460 lung
# NCI-H522 lung = system: NCI-H522 lung
# NCI/ADR-RES ovarian = system: NCI/ADR-RES ovarian
# OVCAR-3 ovarian = system: OVCAR-3 ovarian
# OVCAR-4 ovarian = system: OVCAR-4 ovarian
# OVCAR-5 ovarian = system: OVCAR-5 ovarian
# OVCAR-8 ovarian = system: OVCAR-8 ovarian
# PC-3 prostate = system: PC-3 prostate
# RXF 393 renal = system: RXF 393 renal
# SF-268 CNS = system: SF-268 CNS
# SF-295 CNS = system: SF-295 CNS
# SF-539 CNS = system: SF-539 CNS
# SK-MEL-28 melanoma = system: SK-MEL-28 melanoma
# SK-MEL-5 melanoma = system: SK-MEL-5 melanoma
# SK-OV-3 ovarian = system: SK-OV-3 ovarian
# SN12C renal = system: SN12C renal
# SNB-75 CNS = system: SNB-75 CNS
# SR leukemia = system: SR leukemia
# SW-620 colon = system: SW-620 colon
# TK-10 renal = system: TK-10 renal
# U251 CNS = system: U251 CNS
# UACC-257 melanoma = system: UACC-257 melanoma
# UACC-62 melanoma = system: UACC-62 melanoma
# UO-31 renal = system: UO-31 renal
compound,measurement,setting,value
CC[C@@]1(O)C(=O)OCc2c1cc1n(c2=O)Cc2c-1nc1cc(F)c(C)c3c1c2[C@@H](N)CC3,GI50,786-0 renal,< 10 nM
same,TGI,786-0 renal,< 37 nM
same,GI50,A498 renal,< 10.7 nM
same,TGI,A498 renal,187 nM
same,GI50,A549 NSCLC,< 10 nM
same,TGI,A549 NSCLC,456 nM
same,GI50,BT-549 breast,< 10 nM
same,TGI,BT-549 breast,111 nM
same,GI50,CAKI-1 renal,< 10 nM
same,TGI,CAKI-1 renal,74.1 nM
same,GI50,CCRF-CEM leukemia,< 10 nM
same,GI50,COLO 205 colon,39.3 nM
same,TGI,COLO 205 colon,298 nM
same,GI50,DU-145 prostate,< 10 nM
same,TGI,DU-145 prostate,> 100000 nM
same,GI50,HCC-2998 colon,12.9 nM
same,TGI,HCC-2998 colon,129 nM
same,GI50,HCT-116 colon,< 10 nM
same,TGI,HCT-116 colon,11500 nM
same,GI50,HCT-15 colon,14.6 nM
same,TGI,HCT-15 colon,4890 nM
same,GI50,HL-60(TB) leukemia,< 10 nM
same,GI50,HOP-62 NSCLC,< 10 nM
same,TGI,HOP-62 NSCLC,< 49.4 nM
same,GI50,HOP-92 NSCLC,< 10 nM
same,TGI,HOP-92 NSCLC,192 nM
same,GI50,HS 578T breast,221 nM
same,TGI,HS 578T breast,> 100000 nM
same,GI50,HT29 colon,< 10 nM
same,TGI,HT29 colon,1040 nM
same,GI50,IGROV1 ovarian,26.1 nM
same,TGI,IGROV1 ovarian,1150 nM
same,GI50,K-562 leukemia,< 10 nM
same,TGI,K-562 leukemia,> 100000 nM
same,GI50,KM12 colon,18.4 nM
same,TGI,KM12 colon,> 100000 nM
same,GI50,LOX IMVI melanoma,< 10 nM
same,TGI,LOX IMVI melanoma,10.1 nM
same,GI50,M14 melanoma,< 10 nM
same,TGI,M14 melanoma,27.9 nM
same,GI50,MALME-3M melanoma,11 nM
same,TGI,MALME-3M melanoma,247 nM
same,GI50,MCF7 breast,< 10 nM
same,TGI,MCF7 breast,> 100000 nM
same,GI50,MDA-MB-231 breast,28.5 nM
same,TGI,MDA-MB-231 breast,2220 nM
same,GI50,MDA-MB-435,< 10 nM
same,TGI,MDA-MB-435,625 nM
same,GI50,MDA-MB-468 breast,< 10 nM
same,TGI,MDA-MB-468 breast,< 10 nM
same,GI50,MOLT-4 leukemia,< 10 nM
same,GI50,NCI-H226 lung,< 10 nM
same,TGI,NCI-H226 lung,< 19.7 nM
same,GI50,NCI-H23 lung,< 10 nM
same,TGI,NCI-H23 lung,< 10 nM
same,GI50,NCI-H460 lung,< 10 nM
same,TGI,NCI-H460 lung,434 nM
same,GI50,NCI-H522 lung,< 10 nM
same,TGI,NCI-H522 lung,37.9 nM
same,GI50,NCI/ADR-RES ovarian,< 10 nM
same,TGI,NCI/ADR-RES ovarian,21.3 nM
same,GI50,OVCAR-3 ovarian,36.8 nM
same,TGI,OVCAR-3 ovarian,635 nM
same,GI50,OVCAR-4 ovarian,32.5 nM
same,TGI,OVCAR-4 ovarian,> 100000 nM
same,GI50,OVCAR-5 ovarian,< 12.4 nM
same,TGI,OVCAR-5 ovarian,801 nM
same,GI50,OVCAR-8 ovarian,< 10 nM
same,TGI,OVCAR-8 ovarian,116 nM
same,GI50,PC-3 prostate,20.6 nM
same,TGI,PC-3 prostate,> 100000 nM
same,GI50,RXF 393 renal,< 10 nM
same,TGI,RXF 393 renal,< 13.5 nM
same,GI50,SF-268 CNS,< 10 nM
same,TGI,SF-268 CNS,> 100000 nM
same,GI50,SF-295 CNS,< 10 nM
same,TGI,SF-295 CNS,42.5 nM
same,GI50,SF-539 CNS,< 10 nM
same,TGI,SF-539 CNS,< 10 nM
same,GI50,SK-MEL-28 melanoma,111 nM
same,TGI,SK-MEL-28 melanoma,> 100000 nM
same,GI50,SK-MEL-5 melanoma,< 10 nM
same,TGI,SK-MEL-5 melanoma,< 10 nM
same,GI50,SK-OV-3 ovarian,< 10 nM
same,TGI,SK-OV-3 ovarian,135 nM
same,GI50,SN12C renal,< 10 nM
same,TGI,SN12C renal,145 nM
same,GI50,SNB-75 CNS,< 10 nM
same,TGI,SNB-75 CNS,175 nM
same,GI50,SR leukemia,< 10 nM
same,TGI,SR leukemia,> 100000 nM
same,GI50,SW-620 colon,< 10 nM
same,TGI,SW-620 colon,13100 nM
same,GI50,TK-10 renal,61.1 nM
same,TGI,TK-10 renal,3180 nM
same,GI50,U251 CNS,< 10 nM
same,TGI,U251 CNS,102 nM
same,GI50,UACC-257 melanoma,10.3 nM
same,TGI,UACC-257 melanoma,166 nM
same,GI50,UACC-62 melanoma,< 10 nM
same,TGI,UACC-62 melanoma,14.6 nM
same,GI50,UO-31 renal,< 10 nM
same,TGI,UO-31 renal,48.1 nM

# — PubChem BioAssay (NCI)
